In general, IC50 refers to the concentration that inhibits the measured activity by half.

Structures are written as SMILES.

The assay deals with B cell receptor-mediated activation of B cells in human blood (CD69 expression). The assay is described as follows: Inhibition of B cell activation in whole blood measured by CD69 expression. The format is cell-based. To be noted: anti-IgM stimulation, 20 hours, CD69-positive cells that are also CD20-positive, read-out: HWB IC50. On the procedure: Inhibition of B Cell Activation in Whole Blood Measured by CD69 Expression
A procedure to test the ability of Btk inhibitors to suppress B cell receptor-mediated activation of B cells in human blood is as follows:
Human whole blood (HWB) is obtained from healthy volunteers, with the following restrictions: 24 hr drug-free, non-smokers. Blood is collected by venipuncture into Vacutainer tubes anticoagulated with sodium heparin. Test compounds are diluted to ten times the desired starting drug concentration in PBS […], followed by three-fold serial dilutions in 10% DMSO in PBS to produce a nine point dose-response curve. […] HWB (100 μl) is added to each well, and after mixing the plates are incubated at 37 C, 5% CO2, 100% humidity for 30 minutes.
Included are induced control, unstained and single stains for compensation adjustments and initial voltage settings. […] Supernatants are removed via suction and the remaining pellets are lysed again with another 1 ml of 1× Pharmingen Lyse Buffer, and plates are spun down as before. Supernatants are aspirated and remaining pellets are washed in FACs buffer (PBS+1% FBS). […] Samples are transferred to a 96 well plate suitable to be run on the HTS 96 well system on the BD LSR II flow cytometer.
Using appropriate excitation and emission wavelengths for the fluorophores used, data are acquired and percent positive cell values are obtained using Cell Quest Software. Results are initially analyzed by FACS analysis software (Flow Jo).

With `Cn1nc(-c2ccnc(-n3ncc4cc(C(C)(C)C)cc(F)c4c3=O)c2CO)cc(Nc2ccc(S(C)(=O)=O)cn2)c1=O` [Compound I-4, 6-tert-Butyl-8-fluoro-2-{3-hydroxymethyl-4-[5-(5-methanesulfonyl-pyridin-2-ylamino)-1-methyl-6-oxo-1,6-dihydro-pyridazin-3-yl]-pyridin-2-yl}-2H-phthalazin-1-one], the IC50 was found to be 95 nM. The same measure for `Cn1cc(-c2nccc(-n3ncc4cc(C(C)(C)C)cc(F)c4c3=O)c2CO)cc(Nc2ccc(C(=O)N3CCOCC3)cn2)c1=O` [Compound I-28, 4-(6-tert-Butyl-8-fluoro-1-oxo-1H-phthalazin-2-yl)-3-hydroxymethyl-1′-methyl-5′-[5-(morpholine-4-carbonyl)-pyridin-2-ylamino]-1′H-[2,3′]bipyridinyl-6′-one]: 74 nM; for `Cn1nc(Nc2cc(-c3ccnc(-n4ncc5cc(C(C)(C)C)cc(F)c5c4=O)c3CO)nn(C)c2=O)cc1CN1CCC1` [Compound I-17, 2-{4-[5-(5-Azetidin-1-ylmethyl-1-methyl-1H-pyrazol-3-ylamino)-1-methyl-6-oxo-1,6-dihydro-pyridazin-3-yl]-3-hydroxymethyl-pyridin-2-yl}-6-tert-butyl-8-fluoro-2H-phthalazin-1-one]: 30 nM; for `CN1CCn2nc(Nc3cc(-c4ccnc(-n5ncc6cc(C(C)(C)C)cc(F)c6c5=O)c4CO)nn(C)c3=O)cc2C1` [Compound I-18, 6-tert-Butyl-8-fluoro-2-{3-hydroxymethyl-4-[1-methyl-5-(5-methyl-4,5,6,7-tetrahydro-pyrazolo[1,5-a]pyrazin-2-ylamino)-6-oxo-1,6-dihydro-pyridazin-3-yl]-pyridin-2-yl}-2H-phthalazin-1-one]: 29 nM. On to `CN(C)C(=O)c1ccc(Nc2cc(-c3ccnc(-n4ncc5cc(C(C)(C)C)cc(F)c5c4=O)c3CO)cn(C)c2=O)nc1` [Compound I-10, 6-[2′-(6-tert-Butyl-8-fluoro-1-oxo-1H-phthalazin-2-yl)-3′-hydroxymethyl-1-methyl-6-oxo-1,6-dihydro-[3,4′]bipyridinyl-5-ylamino]-N,N-dimethyl-nicotinamide], for which the IC50 is 9 nM. The same measure for `CN1CCC[C@H]1c1ccc(Nc2cc(-c3ccnc(-n4ncc5cc(C(C)(C)C)ccc5c4=O)c3CO)nn(C)c2=O)nc1` [Compound I-12, 6-tert-Butyl-2-(3-hydroxymethyl-4-{1-methyl-5-[5-((S)-1-methyl-pyrrolidin-2-yl)-pyridin-2-ylamino]-6-oxo-1,6-dihydro-pyridazin-3-yl}-pyridin-2-yl)-2H-phthalazin-1-one]: 28 nM; for `CCN1CCC(c2ccc(Nc3cc(-c4ccnc(-n5ncc6cc(C(C)(C)C)cc(F)c6c5=O)c4CO)nn(C)c3=O)nc2)CC1` [Compound I-14, 6-tert-Butyl-2-{4-[5-(1′-ethyl-1′,2′,3′,4′,5′,6′-hexahydro-[3,4′]bipyridinyl-6-ylamino)-1-methyl-6-oxo-1,6-dihydro-pyridazin-3-yl]-3-hydroxymethyl-pyridin-2-yl}-8-fluoro-2H-phthalazin-1-one]: 6 nM.

In the case of `Cn1nc(-c2ccnc(-n3ccc4cc(C(C)(C)C#N)cc(F)c4c3=O)c2CO)cc(Nc2ccc(OC(C)(C)CN3CC(F)(F)C3)cn2)c1=O` [Compound I-32, 2-{2-[4-(5-{5-[2-(3,3-Difluoro-azetidin-1-yl)-1,1-dimethyl-ethoxy]-pyridin-2-ylamino}-1-methyl-6-oxo-1,6-dihydro-pyridazin-3-yl)-3-hydroxymethyl-pyridin-2-yl]-8-fluoro-1-oxo-1,2-dihydro-isoquinolin-6-yl}-2-methyl-propionitrile], the IC50 worked out at 106 nM. The same measure for `CN(C)C(=O)c1ccc(Nc2cc(-c3ccnc(-n4ncc5cc(C(C)(C)C)cc(F)c5c4=O)c3CO)nn(C)c2=O)nc1` [Compound I-5, 6-{6-[2-(6-tert-Butyl-8-fluoro-1-oxo-1H-phthalazin-2-yl)-3-hydroxymethyl-pyridin-4-yl]-2-methyl-3-oxo-2,3-dihydro-pyridazin-4-ylamino}-N,N-dimethyl-nicotinamide]: 30 nM; for `CN1CCC[C@H]1c1ccc(Nc2cc(-c3ccnc(-n4ncc5cc(C(C)(C)C)cc(F)c5c4=O)c3CO)nn(C)c2=O)nc1` [Compound I-2, 6-tert-Butyl-8-fluoro-2-(3-hydroxymethyl-4-{1-methyl-5-[5-((S)-1-methyl-pyrrolidin-2-yl)-pyridin-2-ylamino]-6-oxo-1,6-dihydro-pyridazin-3-yl}-pyridin-2-yl)-2H-phthalazin-1-one]: 5 nM; for `Cn1nc(-c2ccnc(-n3ccc4cc(C(C)(C)C)cc(F)c4c3=O)c2CO)cc(Nc2ccc(OC(C)(C)CN3CC(F)(F)C3)cn2)c1=O` [Compound I-27, 6-tert-Butyl-2-[4-(5-{5-[2-(3,3-difluoro-azetidin-1-yl)-1,1-dimethyl-ethoxy]-pyridin-2-ylamino}-1-methyl-6-oxo-1,6-dihydro-pyridazin-3-yl)-3-hydroxymethyl-pyridin-2-yl]-8-fluoro-2H-isoquinolin-1-one]: 62 nM. The same measure for `CN1CCC(c2ccc(Nc3cc(-c4ccnc(-n5ncc6cc(C(C)(C)C)ccc6c5=O)c4CO)nn(C)c3=O)nc2)CC1` [Compound I-13, 6-tert-Butyl-2-{3-hydroxymethyl-4-[1-methyl-5-(1′-methyl-1′,2′,3′,4′,5′,6′-hexahydro-[3,4′]bipyridinyl-6-ylamino)-6-oxo-1,6-dihydro-pyridazin-3-yl]-pyridin-2-yl}-2H-phthalazin-1-one]: 47 nM.
